In US12528773B2, “Non-lysosomal glucosylceramidase inhibitors and uses thereof” (ALECTOS THERAPEUTICS INC., priority 2020, dated 2026):

How the values were obtained:
[1] = test system: rat intestinal alpha-glucosidases; test: Inhibition of rat intestinal alpha-glucosidases (rat intestinal lysate, glucose detection); type: biochemical; conditions: compound concentration 25 μM, sucrose as substrate
Method: Assay for Determination of Inhibition of Rat Intestinal Alpha-Glucosidases
Various concentrations of test compounds were prepared in DMSO and then diluted into buffer consisting of 100 mM citric acid, 200 mM disodium phosphate, pH 6.0. Rat intestinal acetone powder (Sigma) was dissolved to 12.5 mg/mL in assay buffer and sonicated in an ice bath, centrifuged, and the supernatant was collected, aliquoted and stored at −20° C. until use. On the day of the assay, the rat intestinal lysate was diluted to 6.25 mg/mL (sucrose reactions) and 2.1 mg/ml (maltose reactions) in assay buffer. The final reaction solutions for sucrose contained 2.1 mg/mL rat intestinal lysate, 40 mM sucrose, 50 or 25 μM of test compound, and 3.3% DMSO. The final reaction solution for maltose contained 0.69 mg/mL rat intestinal lysate, 10 mM maltose, 50 or 25 μM of test compound, and 3.3% DMSO. The reaction was initiated by the addition of substrate (sucrose or maltose) and allowed to proceed at 37° C. for 20 min to assess rat intestinal alpha-glycosidase activities. The reaction was stopped by addition of 20 μL of 2 M Tris-HCl, pH 7.0. The glucose produced during the reaction was detected using a commercial Amplex Red glucose detection kit from Thermo Fisher. For a full plate, the Amplex Red detection mixture was prepared by mixing 35 μL glucose oxidase, 35 μL horseradish peroxidase and 35 μL Amplex Red into 3395 μL 1× Amplex Red detection buffer. A total of 30 μL of detection mixture was added to each well. Fluorescence was measured in kinetic mode on a Biotek Synergy H4 plate reader at a wavelength of 573 nm for excitation and 610 nm for emission for 15 min and quantified from the data at 10 min. Incubations without added rat intestinal lysate were used to correct for the background amount of glucose present in the samples. Incubations without added test compound were used to define maximal enzyme activity. Percent inhibition of rat intestinal alpha-glucosidases was determined by dividing the amount of glucose detected in the presence of test compound by the amount of glucose detected in the maximal enzyme activity wells. All conditions were analyzed in triplicate. […] The final reaction solutions were the same as described above for the Amplex Red Detection kit. After a 20 min reaction time at 37° C., 100 μL of hexokinase glucose reagent was added to all test wells except for the no enzyme added control wells and no test compound added wells. The plate was incubated for a further 15 min at room temperature and the absorbance was read at 340 nm on a Biotek Synergy H4 plate reader. The percent inhibition of rat intestinal alpha-glucosidases was determined in a similar manner as described above.

[2] = biological target: GBA2 (Homo sapiens (Human), UniProt Q9HCG7); test: Inhibition of GBA2 in cell lysate (4-methylumbelliferone glucopyranoside substrate); type: biochemical; conditions: HEK293T-overexpressing GBA2 cellular homogenate, pH 5.5; read-out: GBA2 IC50;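 also: homogenate of stably transfected HEK293T cells pre-treated with a GCase inhibitor, test compound preincubated 5 min at 37 °C, substrate reaction 20 min at 37 °C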
Chain of GBA2 (Q9HCG7 whole entry): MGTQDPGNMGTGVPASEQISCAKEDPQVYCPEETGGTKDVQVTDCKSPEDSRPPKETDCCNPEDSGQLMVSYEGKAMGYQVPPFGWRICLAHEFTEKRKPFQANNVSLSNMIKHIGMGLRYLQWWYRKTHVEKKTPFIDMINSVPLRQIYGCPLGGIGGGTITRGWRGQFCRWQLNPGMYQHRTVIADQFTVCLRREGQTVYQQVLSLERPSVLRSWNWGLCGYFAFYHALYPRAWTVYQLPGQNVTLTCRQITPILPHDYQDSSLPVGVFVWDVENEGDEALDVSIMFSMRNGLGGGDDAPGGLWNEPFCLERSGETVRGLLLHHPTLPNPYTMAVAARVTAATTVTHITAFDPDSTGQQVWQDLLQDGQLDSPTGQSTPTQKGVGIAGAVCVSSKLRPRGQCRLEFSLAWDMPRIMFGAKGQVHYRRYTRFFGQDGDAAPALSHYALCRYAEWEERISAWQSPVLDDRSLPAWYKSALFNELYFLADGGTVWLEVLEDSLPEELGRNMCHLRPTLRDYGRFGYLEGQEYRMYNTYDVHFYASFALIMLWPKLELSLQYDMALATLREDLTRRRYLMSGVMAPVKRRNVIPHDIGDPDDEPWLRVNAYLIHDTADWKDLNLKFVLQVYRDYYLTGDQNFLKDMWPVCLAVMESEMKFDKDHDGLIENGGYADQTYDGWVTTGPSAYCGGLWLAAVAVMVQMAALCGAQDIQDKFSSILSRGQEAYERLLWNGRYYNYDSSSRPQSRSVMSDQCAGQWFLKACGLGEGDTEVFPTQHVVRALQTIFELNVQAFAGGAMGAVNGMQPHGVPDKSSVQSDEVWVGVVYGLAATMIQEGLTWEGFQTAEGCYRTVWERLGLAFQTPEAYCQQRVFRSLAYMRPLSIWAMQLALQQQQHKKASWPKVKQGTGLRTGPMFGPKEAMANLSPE

Row | IC50 [2] [nM] | Compound | rat α-glu. (% inhib.) [1] [%]
1 | < 100 | O[C@H]1[C@H](O)CN(C[C@H]2CCCN(c3ccc(C(F)(F)F)cn3)C2)C[C@@H]1O [Example 170, (3S,4R,5R)-1-(((R)-1-(5-(trifluoromethyl)pyridin-2-yl)piperidin-3-yl)methyl)piperidine-3,4,5-triol] | 14
2 | < 100 | O[C@H]1[C@H](O)CN(C[C@H]2CCCN(c3cnccc3C(F)(F)F)C2)C[C@@H]1O [Example 167, (3S,4R,5R)-1-(((R)-1-(4-(trifluoromethyl)pyridin-3-yl)piperidin-3-yl)methyl)piperidine-3,4,5-triol] | 4
3 | < 100 | O[C@H]1[C@H](O)CN(CCC2CCCCC2)C[C@@H]1O [Example 4, (3S,4r,5R)-1-(2-cyclohexylethyl)piperidine-3,4,5-triol] | 14
4 | < 100 | O[C@H]1[C@H](O)CN(CC2(F)CCN(c3ncccc3C(F)(F)F)CC2)C[C@@H]1O [Example 194, (3S,4r,5R)-1-((4-fluoro-1-(3-(trifluoromethyl)pyridin-2-yl)piperidin-4-yl)methyl)piperidine-3,4,5-triol] | 4
5 | < 100 | O[C@H]1[C@H](O)CN(C[C@H]2CCCN(c3ccncc3C(F)(F)F)C2)C[C@@H]1O [Example 172, (3S,4R,5R)-1-(((R)-1-(3-(trifluoromethyl)pyridin-4-yl)piperidin-3-yl)methyl)piperidine-3,4,5-triol] | 15
6 | < 100 | O[C@H]1[C@H](O)CN(C[C@@H]2CCCN(c3cccnc3C(F)(F)F)C2)C[C@@H]1O [Example 174, (3S,4S,5R)-1-(((S)-1-(2-(trifluoromethyl)pyridin-3-yl)piperidin-3-yl)methyl)piperidine-3,4,5-triol] | 3
7 | < 100 | O[C@H]1[C@H](O)CN(C[C@H]2CCCN(c3ccc(C(F)(F)F)nc3)C2)C[C@@H]1O [Example 171, (3S,4R,5R)-1-(((R)-1-(6-(trifluoromethyl)pyridin-3-yl)piperidin-3-yl)methyl)piperidine-3,4,5-triol] | 1
8 | 1000 to 25000 | O[C@H]1[C@H](O)CN(Cc2cccs2)C[C@@H]1O [Example 205, (3S,4r,5R)-1-(thiophen-2-ylmethyl)piperidine-3,4,5-triol] | 4
9 | < 100 | O[C@H]1[C@H](O)CN(CC2CCN(c3ccccc3)CC2)C[C@@H]1O [Example 106, (3S,4r,5R)-1-((1-phenylpiperidin-4-yl)methyl)piperidine-3,4,5-triol] | 9
10 | 100 to 1000 | O[C@H]1[C@H](O)CN(C[C@@H]2CCCN(c3ccncc3C(F)(F)F)C2)C[C@@H]1O [Example 179, (3S,4S,5R)-1-(((S)-1-(3-(trifluoromethyl)pyridin-4-yl)piperidin-3-yl)methyl)piperidine-3,4,5-triol] | 6
11 | < 100 | O[C@H]1[C@H](O)CN(C[C@@H]2CCN(c3cccc4scnc34)C2)C[C@@H]1O [Example 28, (3S,4S,5R)-1-(((S)-1-(benzo[d]thiazol-4-yl)pyrrolidin-3-yl)methyl)piperidine-3,4,5-triol] | 11
12 | < 100 | O[C@H]1[C@H](O)CN(Cc2ccc(Oc3ccccc3)cc2)C[C@@H]1O [Example 201, (3S,4r,5R)-1-(4-phenoxybenzyl)piperidine-3,4,5-triol] | 3
13 | 100 to 1000 | CC(CCc1cccc(Cl)c1F)N1C[C@@H](O)[C@H](O)[C@@H](O)C1 (stereo partly drawn) [Example 17, (3S,4r,5R)-1-(4-(3-chloro-2-fluorophenyl)butan-2-yl)piperidine-3,4,5-triol] | 0
14 | < 100 | O[C@H]1[C@H](O)CN(C[C@H]2CCN(c3nc4ccccc4s3)C2)C[C@@H]1O [Example 23, (3S,4R,5R)-1-(((R)-1-(benzo[d]thiazol-2-yl)pyrrolidin-3-yl)methyl)piperidine-3,4,5-triol] | 5
15 | < 100 | O[C@H]1[C@H](O)CN(Cc2ccc(-c3ccccc3)cc2)C[C@@H]1O [Example 202, (3S,4r,5R)-1-([1,1′-biphenyl]-4-ylmethyl)piperidine-3,4,5-triol] | 11
16 | 1000 to 25000 | O[C@H]1[C@H](O)CN(C[C@@H]2CCCN(c3ccc(C(F)(F)F)cn3)C2)C[C@@H]1O [Example 177, (3S,4S,5R)-1-(((S)-1-(5-(trifluoromethyl)pyridin-2-yl)piperidin-3-yl)methyl)piperidine-3,4,5-triol] | 7
17 | 100 to 1000 | O[C@H]1[C@H](O)CN(CC2(F)CCN(c3ccc(F)cc3)CC2)C[C@@H]1O [Example 192, (3S,4r,5R)-1-((4-fluoro-1-(4-fluorophenyl)piperidin-4-yl)methyl)piperidine-3,4,5-triol] | 2
18 | < 100 | O[C@H]1[C@H](O)CN(C[C@H]2CCCN(c3cncc(C(F)(F)F)c3)C2)C[C@@H]1O [Example 168, (3S,4R,5R)-1-(((R)-1-(5-(trifluoromethyl)pyridin-3-yl)piperidin-3-yl)methyl)piperidine-3,4,5-triol] | 7
19 | < 100 | O[C@H]1[C@H](O)CN(C[C@H]2CCN(c3ncccc3C(F)(F)F)C2)C[C@@H]1O [Example 19, (3S,4R,5R)-1-(((R)-1-(3-(trifluoromethyl)pyridin-2-yl)pyrrolidin-3-yl)methyl)piperidine-3,4,5-triol] | 6
20 | < 100 | O[C@H]1[C@H](O)CN(C[C@H]2CCN(c3cncc(C(F)(F)F)c3)C2)C[C@@H]1O [Example 146, (3S,4R,5R)-1-(((R)-1-(5-(trifluoromethyl)pyridin-3-yl)pyrrolidin-3-yl)methyl)piperidine-3,4,5-triol] | 0
21 | < 100 | O[C@H]1[C@H](O)CN(Cc2ccc(OCC3CC3)cc2)C[C@@H]1O [Example 200, (3S,4r,5R)-1-(4-(cyclopropylmethoxy)benzyl)piperidine-3,4,5-triol] | 7
22 | < 100 | O[C@H]1[C@H](O)CN(C[C@@H]2CCN(c3ccc(C(F)(F)F)nc3)C2)C[C@@H]1O [Example 162, (3S,4S,5R)-1-(((S)-1-(6-(trifluoromethyl)pyridin-3-yl)pyrrolidin-3-yl)methyl)piperidine-3,4,5-triol] | 0
23 | < 100 | O[C@H]1[C@H](O)CN(C[C@@H]2CCN(c3ncccc3C(F)(F)F)C2)C[C@@H]1O [Example 24, (3S,4S,5R)-1-(((S)-1-(3-(trifluoromethyl)pyridin-2-yl)pyrrolidin-3-yl)methyl)piperidine-3,4,5-triol] | 3
24 | < 100 | O[C@H]1[C@H](O)CN(C[C@H]2CCCN(c3cc(C(F)(F)F)ccn3)C2)C[C@@H]1O [Example 169, (3S,4R,5R)-1-(((R)-1-(4-(trifluoromethyl)pyridin-2-yl)piperidin-3-yl)methyl)piperidine-3,4,5-triol] | 13
25 | 100 to 1000 | O[C@H]1[C@H](O)CN(Cc2ccc(N3CCCCC3)cc2)C[C@@H]1O [Example 204, (3S,4r,5R)-1-(4-(piperidin-1-yl)benzyl)piperidine-3,4,5-triol] | 4
26 | < 100 | O[C@H]1[C@H](O)CN(CC2Cc3ccccc3C2)C[C@@H]1O [Example 62, (3S,4r,5R)-1-((2,3-dihydro-1H-inden-2-yl)methyl)piperidine-3,4,5-triol] | 12
27 | 100 to 1000 | O[C@H]1[C@H](O)CN(C[C@@H]2CCCN(c3cccc(C(F)(F)F)n3)C2)C[C@@H]1O [Example 37, (3S,4S,5R)-1-(((S)-1-(6-(trifluoromethyl)pyridin-2-yl)piperidin-3-yl)methyl)piperidine-3,4,5-triol] | 0

Row | Compound | IC50 [2] [nM] | rat α-glu. (% inhib.) [1] [%]
28 | CCCCOc1cc(F)c(CN2C[C@@H](O)[C@H](O)[C@@H](O)C2)c(F)c1 [Example 199, (3S,4r,5R)-1-(4-butoxy-2,6-difluorobenzyl)piperidine-3,4,5-triol] | 1000 to 25000 | 5
29 | O[C@H]1[C@H](O)CN(CCc2ccc(Cl)c(Cl)c2)C[C@@H]1O [Example 8, (3S,4r,5R)-1-(3,4-dichlorophenethyl)piperidine-3,4,5-triol] | < 100 | 0
